The source made the active and inactive calls.
What was measured:
[1] = growth suppression of beta-catenin-knockout colon cells, dose response, cell-based, HCT116, human colon tumor (AID 1045); format: functional;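 also: HCT116 colon tumor cells with beta catenin knocked out; cells exposed to compound for 60 hours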
[2] = growth suppression of PTEN-null colon cells, dose response, cell-based, HCT116 PTEN knockout (AID 1047); format: functional;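 also: HCT116 colon tumor cells with PTEN knocked out; cells exposed to compound for 60 hours before readout; potency for loss of cell viability measured by luminescence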
[3] = microbe, parasite or virus in culture; format: functional; conditions: Mycobacterium tuberculosis
[4] = system: INS1; test: beta cell apoptosis inhibitors, cytokine rescue, dose response, luminescence, retest (AID 449756); format: functional, cell-based; conditions: Rattus norvegicus;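 also: cell death triggered by IL-1 beta plus TNF-alpha plus IFN-gamma mixture; protective hits raise ATP signal compared with cytokine alone wells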
[5] = target: T1, Short transient receptor potential channel 4 (Mus musculus, UniProt Q9QUQ5); test: mouse TRPC4 channel inhibitors, dose response, cell-based, HEK293 TRPC4/mu-opioid, Fluo-4 calcium (AID 434942); format: functional;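 also: potency of inhibitors blocking the TRPC4 calcium response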
T1 sequence (Q9QUQ5 whole entry): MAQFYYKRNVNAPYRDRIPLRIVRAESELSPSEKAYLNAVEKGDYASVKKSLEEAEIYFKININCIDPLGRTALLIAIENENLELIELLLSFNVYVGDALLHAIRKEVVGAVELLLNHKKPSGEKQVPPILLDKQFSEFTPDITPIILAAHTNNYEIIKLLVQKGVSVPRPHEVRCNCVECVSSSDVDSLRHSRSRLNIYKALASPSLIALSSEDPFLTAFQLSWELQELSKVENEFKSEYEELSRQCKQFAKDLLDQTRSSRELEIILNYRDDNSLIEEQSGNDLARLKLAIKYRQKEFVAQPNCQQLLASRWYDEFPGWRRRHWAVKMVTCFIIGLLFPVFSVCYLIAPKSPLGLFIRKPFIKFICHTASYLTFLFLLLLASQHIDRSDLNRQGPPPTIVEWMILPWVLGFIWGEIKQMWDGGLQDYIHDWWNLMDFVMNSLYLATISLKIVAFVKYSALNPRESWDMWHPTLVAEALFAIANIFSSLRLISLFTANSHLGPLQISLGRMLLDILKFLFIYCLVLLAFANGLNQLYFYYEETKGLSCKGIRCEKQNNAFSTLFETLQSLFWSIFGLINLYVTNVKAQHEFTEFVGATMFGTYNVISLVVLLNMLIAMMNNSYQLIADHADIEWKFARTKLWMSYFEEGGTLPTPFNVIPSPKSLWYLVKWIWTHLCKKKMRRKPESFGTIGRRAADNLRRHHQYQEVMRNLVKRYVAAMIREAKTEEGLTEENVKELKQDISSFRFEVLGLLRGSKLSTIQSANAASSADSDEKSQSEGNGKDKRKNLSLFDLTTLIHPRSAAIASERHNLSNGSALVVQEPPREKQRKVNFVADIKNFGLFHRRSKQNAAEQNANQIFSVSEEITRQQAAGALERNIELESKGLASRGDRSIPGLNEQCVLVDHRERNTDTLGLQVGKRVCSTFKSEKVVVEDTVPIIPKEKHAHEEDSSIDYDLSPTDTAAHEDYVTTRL

[6] = cells; format: functional, cell-based
[7] = cells; format: functional, cell-based; remark: listed apart in the source
[8] = target: Voltage-dependent T-type calcium channel subunit alpha-1H (Homo sapiens, UniProt O95180); format: functional;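 also: channel activity triggered by adding a high calcium stimulation buffer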
[9] = target: T2, Aminopeptidase N (Plasmodium falciparum FcB1/Columbia, UniProt O96935); test: P. falciparum M1AAP inhibitors, biochemical, fluorogenic H-Leu-NHMec substrate, 1536-well (AID 1445); parameters: species or system Plasmodium falciparum 3D7, 3D7
T2 sequence (O96935 whole entry): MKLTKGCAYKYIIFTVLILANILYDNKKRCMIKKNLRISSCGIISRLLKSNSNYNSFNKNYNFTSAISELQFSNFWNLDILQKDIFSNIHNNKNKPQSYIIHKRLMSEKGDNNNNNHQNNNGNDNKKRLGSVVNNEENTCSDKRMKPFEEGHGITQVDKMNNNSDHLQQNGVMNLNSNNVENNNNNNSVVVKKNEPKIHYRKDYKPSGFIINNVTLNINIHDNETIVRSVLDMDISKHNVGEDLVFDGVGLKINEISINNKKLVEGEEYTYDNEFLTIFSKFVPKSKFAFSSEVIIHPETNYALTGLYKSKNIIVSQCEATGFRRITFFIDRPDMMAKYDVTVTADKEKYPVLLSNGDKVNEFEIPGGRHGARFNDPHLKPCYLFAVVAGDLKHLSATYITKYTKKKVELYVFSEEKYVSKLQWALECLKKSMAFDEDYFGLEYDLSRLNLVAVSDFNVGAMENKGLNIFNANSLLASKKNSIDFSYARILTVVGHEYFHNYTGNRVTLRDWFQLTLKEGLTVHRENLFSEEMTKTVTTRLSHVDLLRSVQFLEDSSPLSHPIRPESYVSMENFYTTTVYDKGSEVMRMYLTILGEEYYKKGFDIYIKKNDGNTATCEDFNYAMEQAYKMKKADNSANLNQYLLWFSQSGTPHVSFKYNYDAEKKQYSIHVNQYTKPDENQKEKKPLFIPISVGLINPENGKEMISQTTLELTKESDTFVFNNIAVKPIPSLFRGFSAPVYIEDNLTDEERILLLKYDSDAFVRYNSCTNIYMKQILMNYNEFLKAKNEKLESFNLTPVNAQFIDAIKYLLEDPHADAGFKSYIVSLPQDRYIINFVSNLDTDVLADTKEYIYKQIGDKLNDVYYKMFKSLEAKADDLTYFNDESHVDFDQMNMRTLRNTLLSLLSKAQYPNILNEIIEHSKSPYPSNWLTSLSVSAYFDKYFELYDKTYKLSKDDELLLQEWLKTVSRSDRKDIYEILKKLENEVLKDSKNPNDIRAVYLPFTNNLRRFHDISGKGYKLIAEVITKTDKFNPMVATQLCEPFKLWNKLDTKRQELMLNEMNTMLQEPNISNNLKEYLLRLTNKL

[10] = target: FAD-linked sulfhydryl oxidase ALR (Homo sapiens, UniProt P55789); test: inhibitors of human ALR sulfhydryl oxidase, dose response, biochemical, H2O2 detection, luminescence, cherry-pick (AID 493248)
[11] = cytotoxicity toward NIH3T3 fibroblasts, dose response, counter-screen, cell-based, ATP luminescence, mouse fibroblasts (AID 2010); format: functional;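 also: cells exposed to compound for about 90 hours before reading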
[12] = inhibitors of intracellular T. cruzi replication, confirmation, NIH3T3 host cells, beta-gal luminescence (AID 2044); format: functional, cell-based;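 also: intracellular parasites grown in NIH/3T3 mouse fibroblasts as host cells; luminescent beta-galactosidase reporter signal from transgenic T. cruzi replicating inside host cells; inhibitors lower the luminescence signal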
[13] = target: T3, Heat shock factor protein 1 (Mus musculus, UniProt P38532); test: HSF1 potentiators in luciferase reporter cells, confirmation, cell-based, NIH3T3, luminescence, dose retest (AID 435004); format: functional;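 also: stress induced by proteasome inhibitor MG132 added 30 min after compound; luciferase reporter driven by HSF1 response element in NIH3T3 cells; actives raise luminescence as potentiators of the MG132 stress response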
T3 sequence (P38532 whole entry): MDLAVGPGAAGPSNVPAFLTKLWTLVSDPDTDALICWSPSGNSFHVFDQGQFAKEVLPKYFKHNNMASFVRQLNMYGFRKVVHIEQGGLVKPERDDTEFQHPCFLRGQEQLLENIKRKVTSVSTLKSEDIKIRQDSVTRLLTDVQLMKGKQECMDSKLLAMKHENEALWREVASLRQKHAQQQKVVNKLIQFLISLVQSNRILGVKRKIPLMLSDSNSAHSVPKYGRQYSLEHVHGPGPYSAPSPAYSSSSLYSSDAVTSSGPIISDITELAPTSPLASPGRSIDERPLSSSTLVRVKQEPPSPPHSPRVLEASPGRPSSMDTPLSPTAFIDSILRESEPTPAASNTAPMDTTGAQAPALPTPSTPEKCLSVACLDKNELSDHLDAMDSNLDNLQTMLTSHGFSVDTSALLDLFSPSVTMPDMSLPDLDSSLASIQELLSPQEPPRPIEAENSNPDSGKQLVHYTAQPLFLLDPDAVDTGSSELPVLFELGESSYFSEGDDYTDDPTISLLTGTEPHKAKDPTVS

[14] = Luminescence Cell-Based Dose Retest to Confirm Inhibitors of Cancer Stem Cells. [Related pubchem assays (depositor defined):AID2717, AID2721]; format: functional, Homo sapiens; conditions: Homo sapiens
[15] = target: T4, Calpain-2 catalytic subunit (Sus scrofa, UniProt P43367); test: pig calpain II inhibitor potency, dose response, biochemical, fluorogenic peptide substrate (AID 1420); format: functional
T4 sequence (P43367 whole entry): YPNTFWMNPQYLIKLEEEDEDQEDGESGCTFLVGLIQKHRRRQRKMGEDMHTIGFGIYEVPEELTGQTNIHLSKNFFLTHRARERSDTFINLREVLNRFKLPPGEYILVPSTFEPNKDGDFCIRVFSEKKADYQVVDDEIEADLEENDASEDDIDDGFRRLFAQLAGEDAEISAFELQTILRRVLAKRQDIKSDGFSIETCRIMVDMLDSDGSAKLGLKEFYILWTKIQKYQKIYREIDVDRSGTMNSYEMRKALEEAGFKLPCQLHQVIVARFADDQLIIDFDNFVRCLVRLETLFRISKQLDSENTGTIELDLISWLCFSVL

[16] = target: Cytochrome P450 2C19 (Homo sapiens, UniProt P33261); test: Cytochrome panel assay with activity outcomes. Panel member name: p450-cyp2c19 Compounds with AC50 equal or less than 10 uM are considered active; format: functional; conditions: read-out: AC50
[17] = target: Cytochrome P450 2C9 (Homo sapiens, UniProt P11712)
Sequence of Cytochrome P450 2C9 (P11712 whole entry): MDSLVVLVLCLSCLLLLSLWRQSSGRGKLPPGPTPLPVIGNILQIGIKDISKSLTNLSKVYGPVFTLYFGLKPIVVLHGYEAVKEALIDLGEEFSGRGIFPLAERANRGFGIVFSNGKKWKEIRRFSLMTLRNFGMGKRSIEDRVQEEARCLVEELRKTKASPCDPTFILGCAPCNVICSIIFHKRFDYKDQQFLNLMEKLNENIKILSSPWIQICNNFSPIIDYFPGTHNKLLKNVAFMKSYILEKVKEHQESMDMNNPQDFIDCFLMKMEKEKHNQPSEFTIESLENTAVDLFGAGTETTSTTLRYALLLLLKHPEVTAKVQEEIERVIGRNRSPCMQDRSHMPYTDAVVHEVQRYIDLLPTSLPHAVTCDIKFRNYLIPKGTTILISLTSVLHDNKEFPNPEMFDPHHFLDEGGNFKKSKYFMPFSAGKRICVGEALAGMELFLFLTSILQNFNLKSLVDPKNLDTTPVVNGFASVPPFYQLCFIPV

Sequence of Voltage-dependent T-type calcium channel subunit alpha-1H (O95180 whole entry): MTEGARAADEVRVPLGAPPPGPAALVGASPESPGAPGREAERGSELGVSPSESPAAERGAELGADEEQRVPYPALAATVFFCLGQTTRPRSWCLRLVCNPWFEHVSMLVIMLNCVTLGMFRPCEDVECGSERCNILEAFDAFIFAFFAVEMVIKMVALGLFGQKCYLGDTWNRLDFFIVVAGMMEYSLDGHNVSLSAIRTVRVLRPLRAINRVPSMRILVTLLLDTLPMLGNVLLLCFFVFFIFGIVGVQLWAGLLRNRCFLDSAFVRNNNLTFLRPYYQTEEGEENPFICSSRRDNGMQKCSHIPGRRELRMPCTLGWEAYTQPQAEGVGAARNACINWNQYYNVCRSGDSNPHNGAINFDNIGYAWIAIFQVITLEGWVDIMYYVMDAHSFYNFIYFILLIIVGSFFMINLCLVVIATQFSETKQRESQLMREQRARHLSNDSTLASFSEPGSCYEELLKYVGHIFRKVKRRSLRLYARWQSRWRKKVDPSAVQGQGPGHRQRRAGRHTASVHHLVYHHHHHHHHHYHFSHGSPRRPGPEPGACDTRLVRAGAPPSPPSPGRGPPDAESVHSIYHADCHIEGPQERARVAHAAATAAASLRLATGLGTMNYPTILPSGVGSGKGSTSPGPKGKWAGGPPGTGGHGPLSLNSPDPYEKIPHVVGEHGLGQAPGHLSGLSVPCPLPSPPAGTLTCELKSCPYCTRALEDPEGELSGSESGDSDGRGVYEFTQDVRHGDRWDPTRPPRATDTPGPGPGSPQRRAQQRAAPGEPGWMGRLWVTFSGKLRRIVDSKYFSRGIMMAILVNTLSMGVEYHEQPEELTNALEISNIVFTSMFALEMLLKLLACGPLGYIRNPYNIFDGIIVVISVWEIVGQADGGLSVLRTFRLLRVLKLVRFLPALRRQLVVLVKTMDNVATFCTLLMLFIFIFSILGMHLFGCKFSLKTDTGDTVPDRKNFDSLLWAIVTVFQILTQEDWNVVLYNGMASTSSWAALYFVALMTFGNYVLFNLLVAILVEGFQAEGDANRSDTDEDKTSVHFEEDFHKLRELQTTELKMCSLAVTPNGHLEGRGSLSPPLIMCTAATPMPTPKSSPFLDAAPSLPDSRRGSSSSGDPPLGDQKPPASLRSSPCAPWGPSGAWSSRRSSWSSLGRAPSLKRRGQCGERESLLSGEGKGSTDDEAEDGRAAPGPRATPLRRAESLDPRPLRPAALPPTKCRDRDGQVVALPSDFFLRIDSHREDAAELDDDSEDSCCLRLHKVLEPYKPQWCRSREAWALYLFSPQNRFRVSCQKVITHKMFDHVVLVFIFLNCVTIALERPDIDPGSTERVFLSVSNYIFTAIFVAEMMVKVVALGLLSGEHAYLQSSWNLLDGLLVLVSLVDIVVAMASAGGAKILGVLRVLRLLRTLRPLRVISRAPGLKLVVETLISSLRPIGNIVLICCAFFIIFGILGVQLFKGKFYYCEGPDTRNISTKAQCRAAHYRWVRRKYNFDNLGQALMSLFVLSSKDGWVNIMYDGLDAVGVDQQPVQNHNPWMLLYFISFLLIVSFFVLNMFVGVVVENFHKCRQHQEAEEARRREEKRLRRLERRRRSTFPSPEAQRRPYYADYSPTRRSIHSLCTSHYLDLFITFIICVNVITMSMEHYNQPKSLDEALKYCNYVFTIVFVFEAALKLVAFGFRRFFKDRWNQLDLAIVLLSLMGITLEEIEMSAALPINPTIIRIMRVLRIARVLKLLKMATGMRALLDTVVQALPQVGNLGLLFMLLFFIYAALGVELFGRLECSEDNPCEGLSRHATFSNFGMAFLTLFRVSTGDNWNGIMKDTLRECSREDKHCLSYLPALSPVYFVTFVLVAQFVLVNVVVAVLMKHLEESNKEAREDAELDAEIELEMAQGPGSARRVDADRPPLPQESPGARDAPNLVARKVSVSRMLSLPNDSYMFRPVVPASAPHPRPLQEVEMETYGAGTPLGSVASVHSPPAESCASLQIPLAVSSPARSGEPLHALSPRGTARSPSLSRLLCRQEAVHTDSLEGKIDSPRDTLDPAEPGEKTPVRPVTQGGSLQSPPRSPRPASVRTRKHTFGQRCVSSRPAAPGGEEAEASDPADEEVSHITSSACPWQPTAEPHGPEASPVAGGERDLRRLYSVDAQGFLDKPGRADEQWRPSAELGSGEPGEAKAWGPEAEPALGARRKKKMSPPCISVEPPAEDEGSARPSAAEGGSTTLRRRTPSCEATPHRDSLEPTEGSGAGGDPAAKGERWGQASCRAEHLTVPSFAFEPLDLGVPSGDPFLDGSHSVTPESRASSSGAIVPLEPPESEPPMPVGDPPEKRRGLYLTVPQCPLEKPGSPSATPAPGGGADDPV
Sequence of Cytochrome P450 2C19 (P33261 whole entry): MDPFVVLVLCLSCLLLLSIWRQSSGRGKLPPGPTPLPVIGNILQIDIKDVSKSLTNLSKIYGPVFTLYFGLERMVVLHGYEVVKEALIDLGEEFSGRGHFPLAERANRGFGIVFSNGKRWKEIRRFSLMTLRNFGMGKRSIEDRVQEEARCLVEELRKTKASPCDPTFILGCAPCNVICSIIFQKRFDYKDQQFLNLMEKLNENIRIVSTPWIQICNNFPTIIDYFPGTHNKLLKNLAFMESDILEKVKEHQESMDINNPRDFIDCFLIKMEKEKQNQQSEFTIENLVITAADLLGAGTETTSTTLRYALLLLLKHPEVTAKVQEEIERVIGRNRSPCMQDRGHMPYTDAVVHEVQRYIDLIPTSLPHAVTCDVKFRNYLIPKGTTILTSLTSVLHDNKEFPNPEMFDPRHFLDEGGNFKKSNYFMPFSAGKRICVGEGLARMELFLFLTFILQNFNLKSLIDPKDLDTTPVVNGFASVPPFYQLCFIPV
Sequence of FAD-linked sulfhydryl oxidase ALR (P55789 whole entry): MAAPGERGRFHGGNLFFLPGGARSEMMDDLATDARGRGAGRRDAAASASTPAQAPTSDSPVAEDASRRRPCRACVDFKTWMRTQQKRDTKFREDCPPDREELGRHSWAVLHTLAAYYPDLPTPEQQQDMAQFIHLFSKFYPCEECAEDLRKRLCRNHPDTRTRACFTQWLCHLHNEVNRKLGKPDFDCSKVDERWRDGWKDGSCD

Cc1nc(Nc2ccc(Cl)c(Cl)c2)sc1C(=O)Nc1ccccc1
EC50 [1]: 21.9 µM (active)
EC50 [2]: 19.8 µM (active)
CC50 [3]: 27.2 µM (active)
AC50 [4]: 7.01 µM (active)

CCCc1nc2oc3c(NCCN(C)C)ncnc3c2c2c1CCCC2
EC50 [5]: 1.68 µM (active)

CC(=O)c1cccc(N(C(=O)c2ccccn2)C(C(=O)NC2CCCCC2)c2ccccc2)c1 (stereo not given)
EC50 [6]: > 350 µM (not active)
EC50 [7]: > 350 µM (not active)

CCCCNC(=Nc1ccc(Cl)cc1)c1cccnc1
EC50 [5]: 7.5 µM (active)

O=S(=O)(Nc1nc2ccccc2nc1Nc1ccc2c(c1)OCCO2)c1cccs1
EC50 [8]: 9.65 µM (active)

COc1ccc(-c2cn3nc(SCC(=O)NCC4CCCO4)ccc3n2)cc1 (stereo not given)
EC50 [6]: 9.41 µM (active)
EC50 [7]: > 350 µM (not active)

CNNC(=O)C(C)NC(=O)c1ccc(Br)cc1 (stereo not given)
EC50 [6]: > 350 µM (not active)
EC50 [7]: > 350 µM (not active)

O=C(NC1CCN(Cc2ccccc2)CC1)c1cccc(S(=O)(=O)Nc2ccc(SC(F)F)cc2)c1
CC50 [3]: 32.7 µM (active)

CCCCc1cc(=O)oc2c(CN(CC)CC)c(O)c(Cl)cc12
IC50 [9]: 41.5 µM (active)

Cc1ccc(S(=O)(=O)NC2=NC(=O)/C(=C\c3ccco3)S2)cc1
IC50 [9]: 94 µM (active)

Cc1ccc(-c2nc(C[S+]([O-])CC(=O)NCc3ccc(Cl)cc3)c(C)o2)cc1 (stereo not given)
EC50 [8]: 2 µM (active)

CN(CC(=O)Nc1ccc(F)c(F)c1F)C(=O)/C=C/c1ccc(Cl)cc1
EC50 [6]: 155 µM (active)
EC50 [7]: > 350 µM (not active)

O=C(O)c1ccc(S(=O)(=O)Nc2ccc(O)c(Sc3nc4ccccc4s3)c2)cc1
IC50 [9]: 104 µM (active)
AC50 [10]: 0.236 µM (active)

CCCOc1ccc(C(=O)c2nc3c(n2O)CCCCC3)cc1
CC50 [3]: > 40 µM (active)

Cc1ccc(C)c(CS(=O)(=O)c2cn(CC(=O)N3CCCCC3)c3ccccc23)c1
IC50 [9]: 94.5 µM (active)

Cc1nc(NCCc2ccccc2)c2oc3ccccc3c2n1
CC50 [3]: 31.6 µM (active)

Cc1nn(Cc2ccc(Cl)cc2Cl)c(C)c1NC(=O)c1ccc(COc2cc(Cl)ccc2Cl)o1
EC50 [8]: 17.5 µM (active)
EC50 [11]: > 60 µM (not active)
EC50 [12]: 1.5 µM (active)

O=C(NC(=S)Nc1cccc([N+](=O)[O-])c1)c1ccco1
EC50 [6]: > 350 µM (not active)
EC50 [7]: > 350 µM (not active)

Cc1nc(CS(=O)(=O)c2ccc(Cl)cc2)cc(Sc2ccccc2Cl)n1
EC50 [8]: 4.3 µM (active)

CC(=O)N1CCN(c2ccc(Oc3ccc([N+](=O)[O-])c(C(F)(F)F)c3)cc2)CC1
CC50 [3]: > 40 µM (active)
AC50 [4]: 5.74 µM (active)

O=C(Nc1ccn(Cc2ccccc2F)n1)c1ccc(COc2ccc(Cl)cc2Cl)o1
EC50 [8]: 10.3 µM (active)
EC50 [13]: 20.8 µM (active)
AC50 [14]: 2.03 µM (active)

COc1ccc(C(=O)NCCCOC(=O)c2ccc(OC)cc2)cc1
EC50 [6]: > 350 µM (not active)
EC50 [7]: > 350 µM (not active)

O=C(CSc1nc(O)c2c(C(F)(F)F)cc(-c3cccs3)nc2n1)NCc1ccco1
IC50 [9]: 103 µM (active)

Cc1ccc(C)c(OCCCC(=O)Nc2nccs2)c1
EC50 [8]: 3.06 µM (active)
IC50 [15]: > 50 µM (not active)

O=C(c1ccc(Cl)cc1Cl)N1CCN(c2ccc(N3CCOCC3)nn2)CC1
EC50 [6]: > 350 µM (not active)
EC50 [7]: > 350 µM (not active)

CCn1c(COc2cccc(C)c2)nc2ccccc21
EC50 [8]: 13 µM (active)

O=C(O)c1ccccc1-c1nc(-c2ccccc2)c(-c2ccccc2)[nH]1
IC50 [9]: 46.6 µM (active)

CCN(C(=O)c1c(-c2ccccc2Cl)noc1C)C1CCCCC1
EC50 [5]: 9.44 µM (active)

O=C(/C=C/c1cccnc1)c1cccc(O)c1
CC50 [3]: 15.6 µM (active)

CC(=O)Nc1ccc(S(=O)(=O)Oc2cccc(/C=N/NC3=NC(=O)C(CC(=O)O)S3)c2)cc1 (stereo not given)
IC50 [9]: 52.8 µM (active)

COc1ccc(/C=N/Nc2ncnc3sc4c(c23)CCCC4)cc1OC
EC50 [6]: > 350 µM (not active)
EC50 [7]: > 350 µM (not active)

CCOC(=O)CCCc1ccc(/C(C)=N/NC(N)=S)cc1
CC50 [3]: > 40 µM (active)

Cc1cccn2c(=O)c(/C=N/O)c(N3CCCC3)nc12
EC50 [5]: 1.88 µM (active)
AC50 [16]: 31.6 µM (inconclusive)
AC50 [17]: inconclusive

CCN1CCN(c2ncnc3ccc(Br)cc23)CC1
EC50 [6]: > 350 µM (not active)
EC50 [7]: > 350 µM (not active)
